Structures can show the parent of a compound that is named as a salt.
These molecules were tested against T1, human STING (hSTING) (Homo sapiens, UniProt Q86WV6) (assay: Inhibition test of intracellular human STING (hSTING) pathway using SEAP reporter cells (HEK-Blue ISG), stimulation with Compound 3). Conditions: Compound 3 10 nM stimulation, 21 hours.
T1 construct: host or cells: HEK-Blue ISG cells (HEK293-derived SEAP reporter line)
Type: cell-based
Design: hSTING inhibitory activity: scale not given here
Protocol: Inhibition test of intracellular human STING (hSTING) pathway using reporter cells
Since STING activates the transcription factor IRF3 upon ligand stimulation, the activity of STING can be evaluated by a reporter assay using a secretory alkaline phosphatase (SEAP reporter) integrated downstream of an IRF-inducible promoter.
That is, the hSTING inhibitory activity of the test compound was evaluated using HEK-Blue™MISG cells (manufactured by Invivogen, #hkb-isg-1) incorporating a SEAP reporter. Activation of hSTING was performed by stimulation with the small molecule ligand Compound 3 as described in the literature (Ramanjulu, J. M., et al., Nature. 2018, 564 (7736), 439-443). HEK-Blue™MISG cells were seeded in a 96-well plate and cultured overnight at 37° C. in a 5% CO2 incubator. To each well of this cell culture plate, a test compound solution adjusted to a final concentration of 0.1 to 10 µM of the test compound was added, cultured for 1 hour in a CO2 incubator, and then Compound 3 (final concentration 10 nM) was added and further cultured in a CO2 incubator for 21 hours. After collecting the culture supernatant of each well, the reporter activity was measured by color development reaction with alkaline phosphatase.
The reporter activity of the test compound non-addition and Compound 3 addition group was set to 100%, and the reporter activity of the test compound non-addition and Compound 3 non-addition group was set to 0%. The IC50 value was determined by regression analysis of the inhibitory rate determined from the reporter activity at each compound concentration and the test compound concentration (logarithm).

T1 sequence (Q86WV6 whole entry H232R): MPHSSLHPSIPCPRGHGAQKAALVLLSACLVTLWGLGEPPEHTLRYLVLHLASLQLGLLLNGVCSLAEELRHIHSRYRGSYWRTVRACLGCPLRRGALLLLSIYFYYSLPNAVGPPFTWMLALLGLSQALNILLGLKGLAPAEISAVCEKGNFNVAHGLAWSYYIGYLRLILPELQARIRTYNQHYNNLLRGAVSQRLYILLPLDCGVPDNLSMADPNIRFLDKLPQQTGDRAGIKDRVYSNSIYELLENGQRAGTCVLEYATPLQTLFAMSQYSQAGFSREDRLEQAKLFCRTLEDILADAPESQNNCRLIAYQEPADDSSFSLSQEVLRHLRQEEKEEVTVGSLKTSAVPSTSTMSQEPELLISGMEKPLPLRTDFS

| hSTING inhibitory activity | Compound |
| --- | --- |
| * * | CN(C)c1cccc(Oc2ccc3[nH]c(Nc4c[nH]c5ccc(Br)nc45)nc3c2)c1 [Embodiment 65, N-(5-bromo-1H-pyrrolo[3,2-b]pyridin-3-yl)-5-[3-(dimethylamino)phenoxy]-1H-benzo[d]imidazol-2-amine] |
| * * | Cn1c(Nc2c[nH]c3ccc(Br)cc23)nc2ccc(Oc3ccccc3)cc21 [Embodiment 39, N-(5-bromo-1H-indol-3-yl)-1-methyl-6-phenoxy-1H-benzo[d]imidazol-2-amine] |
| * * * | CNn1c(Nc2c[nH]c3ccc(F)c(F)c23)nc2cc(C(F)(F)F)cc(F)c21 [Embodiment 272, N2-(4,5-difluoro-1H-indol-3-yl)-7-fluoro-N1-methyl-5-(trifluoromethyl)-1H-benzo[d]imidazole-1,2-diamine] |
| * * | COC(=O)c1ccc2[nH]c(Nc3c[nH]c4ccc(Br)nc34)nc2c1 [Embodiment 34, methyl 2-[(5-bromo-1H-pyrrolo[3,2-b]pyridin-3-yl)amino]-1H-benzo[d]imidazole-5-carboxylate] |
| * * | FC(F)(F)c1ccc2[nH]cc(Nc3nc4cc(Oc5ccccc5)ccc4[nH]3)c2n1 [Embodiment 55, 5-phenoxy-N-[5-(trifluoromethyl)-1H-pyrrolo[3,2-b]pyridin-3-yl]-1H-benzo[d]imidazol-2-amine] |
| * * | Cc1ccc2[nH]c(Nc3c[nH]c4ccc(Cl)nc34)nc2c1C [Embodiment 85, N-(5-Chloro-1H-pyrrolo[3,2-b]pyridin-3-yl)-4,5-dimethyl-1H-benzo[d]imidazol-2-amine] |
| * * | Cn1nccc1Oc1ccc2[nH]c(Nc3c[nH]c4ccc(Br)nc34)nc2c1 [Embodiment 63, N-(5-bromo-1H-pyrrolo[3,2-b]pyridin-3-yl)-5-[(1-methyl-1H-pyrazol-5-yl)oxy]-1H-benzo[d] imidazol-2-amine] |

Same assay, conditions: Compound 3 10 nM stimulation, 21 hours, read-out: hSTING inhibitory activity

| IC50 | Compound |
| --- | --- |
| ≥ 10 µM | COCCn1c(Nc2c[nH]c3ccc(Cl)nc23)nc2c(C(F)(F)F)cccc21 [Embodiment 167, N-(5-Chloro-1H-pyrrolo[3,2-b]pyridin-3-yl)-1-(2-methoxyethyl)-4-(trifluoromethyl)-1H-benzo[d] imidazole-2-amine] |
| ≥ 10 µM | COCCn1c(Nc2c[nH]c3ccc(Cl)nc23)nc2cc(-c3ccccc3)ccc21 [Embodiment 181] |
| ≥ 10 µM | N#Cc1cccc2[nH]c(Nc3c[nH]c4ccc(Cl)nc34)nc12 [Embodiment 113, 2-[(5-Chloro-1H-pyrrolo[3,2-b]pyridin-3-yl)amino]-1H-benzo [d]imidazole-4-carbonitrile] |
| ≥ 10 µM | Cn1c(Nc2c[nH]c3ccc(Cl)nc23)nc2cc(C3CCOCC3)ccc21 [Embodiment 153, N-(5-chloro-1H-pyrrolo[3,2-b]pyridin-3-yl)-1-methyl-5-(tetrahydro-2H-pyran-4-yl)-1H-benzo[d] imidazol-2-amine] |
| ≥ 10 µM | Cc1ccc2nc(Nc3c[nH]c4ccc(Cl)nc34)n(C)c2c1 [Embodiment 152, N-(5-Chloro-1H-pyrrolo[3,2-b]pyridin-3-yl)-1,6-dimethyl-1H-benzo [d]imidazol-2-amine] |

The remaining lines, values behind:

| Compound | IC50 |
| --- | --- |
| FC(F)(F)c1cnc2[nH]cc(Nc3nc4cc(Oc5ccccc5)ccc4[nH]3)c2c1 [Embodiment 74, 5-phenoxy-N-[5-(trifluoromethyl)-1H-pyrrolo[2,3-b]pyridin-3-yl]-1H-benzo[d]imidazol-2-amine formate] | 1 to 10 µM |
| CCCCn1c(Nc2c[nH]c3ccc(Br)nc23)nc2cc(Oc3ccccc3)ccc21 [Embodiment 90, N-(5-bromo-1H-pyrrolo[3,2-b]pyridin-3-yl)-1-butyl-5-phenoxy-1H-benzo[d]imidazol-2-amine] | 1 to 10 µM |
| Cn1cc(-c2ccc3[nH]c(Nc4c[nH]c5ccc(Cl)nc45)nc3c2)cn1 [Embodiment 102, N-(5-chloro-1H-pyrrolo[3,2-b]pyridin-3-yl)-5-(1-methyl-1H-pyrazol-4-yl)-1H-benzo[d]imidazole-2-amine] | ≥ 10 µM |

Reference: US20240279205A1, “NOVEL BENZIMIDAZOLE DERIVATIVE” (Carna Biosciences, Inc., priority 2020, published 2024)
